# According to patent publication US10774080B2, “Pyrimidine compound as JAK kinase inhibitor” (THERAVANCE BIOPHARMA R&D IP, LLC, priority 2017, dated 2020):
# What was measured:
# CCL2 gene expression = test: Assay 7: ex vivo JAK PD assay, freshly excised human skin, CCL2; conditions: 0.5% ointment, about 40 hours continuous exposure, Th1-skewed stimulation (TNFα, IFNγ, IL-12), vs vehicle
# Description: Assay 7: Ex Vivo JAK Pharmacodynamic (PD) Assay Using Human Freshly Excised Skin An ex vivo JAK pharmacodynamics (PD) assay was conducted using human isolated skin tissue. The PD assay used fresh human skin (dermatome of 750 μm thickness) that was mounted in static Franz cells with a surface area of ˜0.5 cm^2. The receiver chambers of the Franz cells were filled with warm (37° C.) cornification media and placed in an incubator at 37° C. The skin was topically dosed with 10 μL ([…]) of compound (I) or vehicle and was left undisturbed overnight (˜24 hours). The next day, with no re-application of the test compound or vehicle, the media was replaced with a Th1-skewed stimulation cocktail consisting of TNFα, IFNγ and IL-12. The skin was left undisturbed for an additional 16 hours, and then harvested and processed for RNA extraction and qPCR of biomarkers: CXCL10, CCL2. GAPDH was used as an internal standard. The compound (I) was formulated in an ointment formulation at 0.5% strength. A total of three skin donors (tested in quadruplicates/sample/treatment) were used. Treatment effect was calculated as the percent increase or decrease in stimulation compared to the vehicle group. [table]
# [1] = tested on: IL-2 stimulated STAT5 phosphorylation in Tall-1 human T cell line; test: Assay 11: inhibition of IL-2 stimulated pSTAT5 in Tall-1 T cells; format: cell-based; conditions: read-out: pIC50 for inhibition of IL-2 induced STAT5 phosphorylation (converted)
# Description: Assay 11: Inhibition of IL-2 Stimulated pSTAT5 in Tall-1 T Cells
# The potency of test compounds for inhibition of interleukin-2 (IL-2) stimulated STAT5 phosphorylation was measured in the Tall-1 human T cell line (DSMZ) using AlphaLisa. Because IL-2 signals through JAK1/3, this assay provides a measure of JAK1/3 cellular potency.
# Phosphorylated STAT5 was measured via the AlphaLISA SureFire Ultra pSTAT5 (Tyr694/699) kit (PerkinElmer).
# Human T cells from the Tall-1 cell line were cultured in a 37° C., 5% CO2 humidified incubator in RPMI (Life Technologies) supplemented with 15% Heat Inactivated Fetal Bovine Serum (FBS, Life Technologies), 2 mM Glutamax (Life Technologies), 25 mM HEPES (Life Technologies) and 1× Pen/Strep (Life Technologies). […] Phosphorylated STAT5 was measured via the pSTAT5 AlphaLisa kit (PerkinElmer). […] Luminescence was measured with excitation at 689 nm and emission at […] using an EnVision plate reader (PerkinElmer) under green filtered <100 lux light.
# To determine the inhibitory potency of test compounds in response to IL-2, the average emission intensity of beads bound to pSTAT5 was measured in a human T cell line. IC50 values were determined from analysis of the inhibition curves of signal intensity versus compound concentration. Data are expressed as pIC50 (negative decadic logarithm IC50) values (mean±standard deviation).
# JAK2 = target: T1, JAK2 (Homo sapiens, UniProt O60674); test: Biochemical JAK kinase assay (LanthaScreen), JAK2; conditions: converted from pIC50 by Cheng-Prusoff; ATP at Km 3 μM; read-out: JAK 2 (pKi) (converted)
# T1 construct: GST; purchased Life Technologies
# Description: Assay 1: Biochemical JAK and Tyk2 Kinase Assays A panel of four LanthaScreen JAK biochemical assays (JAK1, 2, 3 and Tyk2) were carried in a common kinase reaction buffer (50 mM HEPES, pH 7.5, 0.01% Brij-35, 10 mM MgCl2, and 1 mM EGTA). Recombinant GST-tagged JAK enzymes and a GFP-tagged STAT1 peptide substrate were obtained from Life Technologies. Serially or discretely diluted compounds were pre-incubated with each of the four JAK enzymes and the substrate in white 384-well microplates (Corning) at ambient temperature for 1 h. ATP was subsequently added to initiate the kinase reactions in 10 μL total volume, with 1% DMSO. […] The plates were allowed to incubate at ambient temperature for 1 h before being read on the EnVision reader (Perkin Elmer). Emission ratio signals (520 nm/495 nm) were recorded and utilized to calculate the percent inhibition values based on DMSO and background controls. For dose-response analysis, percent inhibition data were plotted vs. compound concentrations, and IC50 values were determined from a 4-parameter robust fit model with the Prism software (GraphPad Software). Results were expressed as pIC50 (negative logarithm of IC50) and subsequently converted to pKi (negative logarithm of dissociation constant, Ki) using the Cheng-Prusoff equation.
# T1 sequence (O60674 whole entry): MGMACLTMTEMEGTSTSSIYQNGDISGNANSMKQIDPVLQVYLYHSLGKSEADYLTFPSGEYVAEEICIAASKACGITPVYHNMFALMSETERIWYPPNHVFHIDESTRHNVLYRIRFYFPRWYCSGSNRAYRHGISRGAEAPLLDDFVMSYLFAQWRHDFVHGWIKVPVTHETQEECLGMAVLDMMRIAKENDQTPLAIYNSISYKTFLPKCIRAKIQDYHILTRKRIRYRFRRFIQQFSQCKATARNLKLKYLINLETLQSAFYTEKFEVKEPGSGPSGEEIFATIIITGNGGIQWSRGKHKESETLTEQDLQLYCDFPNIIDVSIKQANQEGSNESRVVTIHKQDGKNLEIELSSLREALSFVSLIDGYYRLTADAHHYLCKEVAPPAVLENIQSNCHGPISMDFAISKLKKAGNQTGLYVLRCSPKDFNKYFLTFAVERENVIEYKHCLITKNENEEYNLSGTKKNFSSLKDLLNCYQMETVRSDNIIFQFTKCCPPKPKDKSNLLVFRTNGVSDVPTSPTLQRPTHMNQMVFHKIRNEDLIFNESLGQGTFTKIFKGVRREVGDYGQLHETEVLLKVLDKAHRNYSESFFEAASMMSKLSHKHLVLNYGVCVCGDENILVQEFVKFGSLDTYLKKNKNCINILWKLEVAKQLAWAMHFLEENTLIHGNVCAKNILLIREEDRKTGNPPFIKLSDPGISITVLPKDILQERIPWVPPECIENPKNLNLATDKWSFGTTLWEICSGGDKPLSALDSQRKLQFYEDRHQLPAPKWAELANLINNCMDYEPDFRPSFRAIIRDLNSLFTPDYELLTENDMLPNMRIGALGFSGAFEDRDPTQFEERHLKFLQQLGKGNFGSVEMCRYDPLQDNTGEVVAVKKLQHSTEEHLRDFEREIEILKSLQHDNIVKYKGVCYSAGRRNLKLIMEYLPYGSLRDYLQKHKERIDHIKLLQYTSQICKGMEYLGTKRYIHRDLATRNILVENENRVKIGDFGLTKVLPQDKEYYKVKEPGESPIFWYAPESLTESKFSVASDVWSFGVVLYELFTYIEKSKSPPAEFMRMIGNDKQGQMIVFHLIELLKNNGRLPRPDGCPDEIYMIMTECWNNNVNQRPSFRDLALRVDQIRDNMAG
smiles,measurement,setting,value
"CCS(=O)(=O)N1[C@@H]2CCC[C@H]1C[C@H](N(C)c1nc(CO)c(F)c(Nc3cc(C)[nH]n3)n1)C2 [Compound (I), (2-(((1R,3s,5S)-9-(ethylsulfonyl)-9-azabicyclo[3.3.1]nonan-3-yl)(methyl)amino)-5-fluoro-6-((5-methyl-1H-pyrazol-3-yl)amino)pyrimidin-4-yl)methanol]",PD-% Inhibition (mean ± SD) CCL2,CCL2 gene expression,61.3%
same,IC50,[1],3.98 nM
same,Ki,JAK2,0.0631 nM
